# Reference: US20160039897A1, “COMPOUNDS AND METHODS FOR TREATING OBESITY AND CONTROLLING WEIGHT” (THE UNIVERSITY OF NORTH CAROLINA AT CHAPEL HILL, priority 2013, published 2016)
# How the values were obtained:
# [1] = tested on: IGFBP-2−/− mice; experiment: Serum adiponectin and leptin by ELISA; format: in vivo, mouse; settings: after 12 weeks
# Method: Body fat and lean muscle mass was measured at weeks 0 and 12 of treatment by magnetic resonance imaging analysis (EchoMRI-100, Echo Medical Systems, Houston, Tex.), a technique that measures fat mass and lean mass in unanesthetized animals (Kelly S A, et. al., 2010). After completion of 12 weeks of treatment, the mice were sacrificed. Blood was collected by cardiac puncture and allowed to sit for 4 hours before centrifuging at 3500 rpm×15 min. The serum was aspirated and stored at −20° C. until analysis. Abdominal inguinal and visceral fat pads were carefully dissected from each animal according to defined anatomical landmarks. All subcutaneous fat between the lower part of the rib cage and the upper thigh was considered abdominal subcutaneous inguinal fat, whereas all fat found along the mesentery starting at the lesser curvature of the stomach and ending at the sigmoid colon was considered visceral fat. Fat depots were blotted dry prior to weighing. The right inguinal fat pad was dissected separately and the triglyceride content of this tissue was determined by a colorimetric analysis (Pointe Scientific, Canton, Mich.), as previously described (Dann H, Kimura S 1992). Serum adiponectin and leptin were measured by ELISA following manufacturer's instructions (Millipore, Billerica, Mass.).
# Body composition and serum adipokine measurement. Body fat and lean mass were measured at weeks 0 and 12 of treatment by magnetic resonance imaging analysis (EchoMRI-100, Echo Medical Systems, Houston, Tex.), using unanesthetized animals. After 12 weeks of treatment, the mice were sacrificed and blood was collected by cardiac puncture and centrifuged at 3500 rpm×15 min. The serum was stored at −20° C. Abdominal inguinal and visceral fat pads were dissected from each animal according to defined anatomical landmarks. Subcutaneous fat between the rib cage and the upper thigh was termed subcutaneous inguinal fat, whereas all fat from the lesser curvature of the stomach to the sigmoid colon was termed visceral fat. Fat depots were blotted dry prior to weighing. The right inguinal fat pad was dissected separately and the triglyceride content of this tissue was determined by a calorimetric analysis (Pointe Scientific, Canton, Mich. Serum adiponectin and leptin were measured by ELISA following manufacturer's instructions (Millipore, Billerica, Mass.).
# [2] = tested on: primary preadipocytes from IGFBP-2−/− mice; experiment: Differentiation of primary preadipocytes (immunoblot of adiponectin, aP2, PPARγ; Oil Red O staining); format: cell-based, mouse; settings: for % suppression of adiponectin / reduction of PPARγ expression / reduction of aP2 expression / reduction of adiponectin expression: mean±SE; for % suppression of adiponectin: N=3; for relative potency as inhibitor of adipogenesis / preadipocyte differentiation (in words): comparison between peptides and proteins, immunoblot and Oil Red O; for reduction of PPARγ expression / reduction of aP2 expression / reduction of adiponectin expression: peptide 6 μg/ml in differentiation medium vs differentiation medium only, immunoblot relative to β-actin
# Method: Primary preadipocytes were isolated from epididymal fat pads of 6 week old IGFBP-2^−/− mice. The cells were cultured using a previously described method (Boney, C M et al., 1994). The fat pads were weighed and the tissue was digested with an equal volume (W/V) of collagenase type A (Roche Applied Science, Indianapolis, Ind.) in HEPES buffer (0.1M and 1.5% BSA) for 45 min at 37° C. Following complete digestion, the preadipocytes were separated from the stromal vascular cells by centrifugation at 500×g for 5 min. The pelleted cells were washed with DMEM containing 30 mM glucose (Gibco, Grand Island, N.Y.) and passed through a 100 μm mesh filter (BD Biosciences, Bedford, Mass.). The cells were then plated in 6-well plates (Falcon Corp., Franklin Lakes, N.J.) at a density of 1.2-1.5×10^4 cells/ml in DMEM containing 30 mM glucose supplemented with penicillin (100 U/ml), streptomycin (100 μg/ml), and 10% fetal bovine serum hereafter referred to as standard medium. The cultures had the medium changed every 2 days until they reached confluency. Two day post-confluent cells were then exposed to differentiation medium (serum free DMEM containing 0.5 mM IBMX, 1 μM dexamethasone, and 5 μg/mL insulin) and incubated for 2 days. Experimental treatments that were added to this medium included either wild type IGFBP-2 (3 μg/ml), HBD1 peptide (6 μg/ml), HBD1 control peptide (6 μg/ml), HBD2 peptide (6 μg/ml), HBD2 control peptide (6 μg/ml), HBD1 mutant IGFBP-2 (3 μg/ml) or the HBD2 mutant IGFBP-2 (3 μg/ml). Cultures were maintained for two additional days in the standard medium supplemented with 5 μg/ml insulin. Thereafter, the cultures were kept in the fresh standard medium without insulin for additional two days.
# After treatment, the cells were rinsed with PBS for two times and fixed with 10% formalin for 30 min at room temperature. After rinsing with distilled water for twice, 100% propylene glycol (Poly Scientific, Bay Shore, N.Y.) was added and incubated for 5 min. Before adding Oil Red O solution (Poly Scientific, Bay Shore, N.Y.), propylene glycol was removed. The cultures were incubated for 10 min at 60° C. Removing Oil Red O solution, the cultures were incubated with 80% propylene glycol for 5 min, After incubation, the cultures were rinsed with tap water twice. Images were captured using an Olympus IX81 inverted microscope.
# Differentiated adipocytes were lysed in ice-cold lysis buffer (Xi et al., 2008). After centrifugation at 14,000×g for 10 min, solubilized proteins were quantified by the Bradford method (Thermo Scientific, Rockford, Ill.). Equal protein amounts of lysates were loaded onto a SDS-polyacrylamide gel and the proteins were separated, then transferred to an Immobilon filter and visualized by immunoblotting using the appropriate antibody. The primary antibody dilutions that were used were 1:1000 for the anti-adiponectin antibody (Affinity BioReagents, Golden, Colo.), 1:500 for the anti-PPARγ antibody (Cell Signaling Technology Inc., Beverly, Mass.), 1:2000 for the anti-apt antibody (ProSci Inc., Poway, Calif.) and 1:5000 for the anti-β-actin antibody (Sigma Chemical Company, St. Louis, Mo.). The immune complexes were visualized using enhanced chemiluminescence (Thermo Fischer Scientific, Rockford, Ill.).
# Preadipocytes were prepared from mice and grown in culture as described herein. The respective mouse and human peptides were added to cells and the cells were lysed and the lysates were run on SDS gels as described. Immunoblotting for adiponectin was carried as described. Three concentrations of each peptide, 0.7, 2.0 and 6.0 μg/ml, were compared. The results were expressed as % suppression mean±SE(N=3) and were as follows.
# Cell culture of primary preadipocytes. Preadipocytes were isolated from epididymal fat pads of IGFBP-2^−/− mice. The cultures had the medium changed every 2 days until they reached confluency. […]
Sequence,increase of serum leptin level compared to control peptide treated mice [1],serum adiponectin level lower than in control peptide treated mice [1] [%],serum adiponectin level reduction compared to HBD1 peptide treated mice [1] [%],% suppression of adiponectin ([2]; 0.7 μg/ml peptide) [%],% suppression of adiponectin ([2]; 2.0 μg/ml peptide) [%],% suppression of adiponectin ([2]; 6.0 μg/ml peptide) [%],potency in inhibiting preadipocyte differentiation relative to the HBD1 peptide ([2]; HBD2 peptide vs HBD1 peptide) [fold],relative potency as inhibitor of adipogenesis / preadipocyte differentiation (in words) [2],relative potency as inhibitor of adipogenesis / preadipocyte differentiation (in words) ([2]; listed as human peptide),reduction of PPARγ expression [2] [%],reduction of aP2 expression [2],reduction of adiponectin expression [2],relative potency as inhibitor of adipogenesis / preadipocyte differentiation (in words) ([2]; listed as mouse HBD1 peptide)
KHGLYNLKQCKMSLNGQR [HBD2 peptide],57±9%,36±4,24±5,49.4 ± 10,87.9 ± 6.2,96.9 ± 7.0,1.8,most potent inhibitors of adipogenesis,equipotent,67±7,completely inhibited,completely inhibited,–
KHLSLEEPKKLRP [HBD1 peptide],had no effect,–,–,–,–,–,–,less activity,–,47±9,51±2%,66±10%,equivalent in inhibiting preadipocyte differentiation
